Measurements taken from patent US9416115B2, “Fused heterocyclic compounds as ion channel modulators” (Gilead Sciences, Inc., priority 2013, dated 2016).

Tests used:
hNav1.1 (SCN1A) = hNav1.1 (SCN1A) (Homo sapiens, UniProt P35498); assay: Use-dependent inhibition of the CNS Nav1.1 sodium channel; assay type: cell-based; details: use-dependent block, 25 Hz, pulse 20, read-out: Nav1.1 UDB 25 Hz 10 uM
Method: HEK-293 cells stably expressing wild-type (WT) hNav1.1 (SCN1A, NCBI# AB09354) were obtained from Millipore (Cat. # CYL3009) were used to record INa. Cells are maintained with standard tissue culture procedures and stable channel expression is maintained with 400 ug/mL G418 in the culture medium. Unless otherwise noted, all reagents are purchased from Sigma-Aldrich (St Louis, Mo., U.S.A.).
(§1) Assays measuring Use-Dependent Block (UDB) of Nav1.2 are performed on an automated electrophysiology platform, QPatch 16X or QPatch HT (Sophion Bioscience, Copenhagen, Denmark), using the whole cell patch clamp technique to measure currents through the cell membrane. Series resistance compensation is set to 100% and series resistance and whole-cell compensation are performed automatically. Currents stored in the Sophion Bioscience Oracle database (Sophion Bioscience, Copenhagen, Denmark). Analysis is performed using QPatch Assay software and data are compiled in Excel 2010 (Microsoft, Seattle, Wash., U.S.A.).
(§2) The internal (pipette) solution consists of (in mM) 105 CsF, 10 NaF, 20 CsCl, 2 EGTA, 10 HEPES, 10 Dextrose with a pH of 7.35 and osmolarity of 300 mOsmol/kg. The external (bath) solution contains in (mM): 145 NaCl, 4 KCl, 1.8 CaCl2, 1 MgCl2, 10 dextrose, 10 HEPES, with a pH of 7.35 and osmolarity of 310 mOsmol/kg. Experiments are carried out at 23-25° C.
(§3) Compound stocks are routinely made by the Gilead Sample Bank in vials to 10 mM in dimethyl sulfoxide (DMSO). In some cases, when compounds are not soluble in DMSO, they are made in 100% ethanol. Stocks are sonicated as necessary. […]
(§4) Cells are allowed to stabilize for 10 min after establishment of the whole-cell configuration before current is measured. The test compound is applied 2 times at 60 second intervals. After the second compound addition, a 200 second wait period was imposed to allow for equilibration. Leak currents are subtracted by using an online P/4 procedure and all currents are low-pass Bessel filtered at 5 kHz and digitized at […].
Use-dependent block of Nav1.2 peak current is measured during pulse number 20 of a voltage pulse train (0 mV, 20 ms, 20 pulses, 25 Hz) from a holding potential of −120 mV. Currents are normalized to the peak current recorded in response to the first pulse in each frequency train. The voltage protocol for UDB was performed in the absence and presence of compound and percentage inhibition was calculated with respect to the compound free condition. Results are presented as mean percentage inhibition and data analysis is performed using QPatch Assay Software 4.0, and Excel 2002 (Microsoft, Seattle, Wash., U.S.A.).

hNaV1.2 (SCN2A) = target: T1, hNaV1.2 (SCN2A) (Homo sapiens, UniProt Q99250); assay: Use-dependent inhibition of the CNS Nav1.2 sodium channel; assay type: cell-based; details: use-dependent block, 25 Hz, pulse 20, read-out: Nav1.2 UDB 25 Hz 10 uM
T1 construct: expressed in transfected cells
Method: HEK-293 cells stably expressing wild-type (WT) hNaV1.2 (SCN2A NCBI # NM_021007.2, SCN1B NCBI # NM_001037.4, SCN2B NCBI # NM_004588.2) were used to record INa. Cells are maintained with standard tissue culture procedures and stable channel expression is maintained with 800 ug/mL G418 and 3 ug/mL Puromycin in the culture medium. Unless otherwise noted, all reagents are purchased from Sigma-Aldrich (St Louis, Mo., U.S.A.).
as §1, §2, §3, §4
Results are presented as mean percentage inhibition.
Use-dependent block of Nav1.2 peak current is measured during pulse number 20 of a voltage pulse train (0 mV, 20 ms, 20 pulses, 25 Hz) from a holding potential of −120 mV.
Currents are normalized to the peak current recorded in response to the first pulse in each frequency train. The voltage protocol for UDB was performed in the absence and presence of compound and percentage inhibition was calculated with respect to the compound free condition.

T1 sequence (Q99250 whole entry): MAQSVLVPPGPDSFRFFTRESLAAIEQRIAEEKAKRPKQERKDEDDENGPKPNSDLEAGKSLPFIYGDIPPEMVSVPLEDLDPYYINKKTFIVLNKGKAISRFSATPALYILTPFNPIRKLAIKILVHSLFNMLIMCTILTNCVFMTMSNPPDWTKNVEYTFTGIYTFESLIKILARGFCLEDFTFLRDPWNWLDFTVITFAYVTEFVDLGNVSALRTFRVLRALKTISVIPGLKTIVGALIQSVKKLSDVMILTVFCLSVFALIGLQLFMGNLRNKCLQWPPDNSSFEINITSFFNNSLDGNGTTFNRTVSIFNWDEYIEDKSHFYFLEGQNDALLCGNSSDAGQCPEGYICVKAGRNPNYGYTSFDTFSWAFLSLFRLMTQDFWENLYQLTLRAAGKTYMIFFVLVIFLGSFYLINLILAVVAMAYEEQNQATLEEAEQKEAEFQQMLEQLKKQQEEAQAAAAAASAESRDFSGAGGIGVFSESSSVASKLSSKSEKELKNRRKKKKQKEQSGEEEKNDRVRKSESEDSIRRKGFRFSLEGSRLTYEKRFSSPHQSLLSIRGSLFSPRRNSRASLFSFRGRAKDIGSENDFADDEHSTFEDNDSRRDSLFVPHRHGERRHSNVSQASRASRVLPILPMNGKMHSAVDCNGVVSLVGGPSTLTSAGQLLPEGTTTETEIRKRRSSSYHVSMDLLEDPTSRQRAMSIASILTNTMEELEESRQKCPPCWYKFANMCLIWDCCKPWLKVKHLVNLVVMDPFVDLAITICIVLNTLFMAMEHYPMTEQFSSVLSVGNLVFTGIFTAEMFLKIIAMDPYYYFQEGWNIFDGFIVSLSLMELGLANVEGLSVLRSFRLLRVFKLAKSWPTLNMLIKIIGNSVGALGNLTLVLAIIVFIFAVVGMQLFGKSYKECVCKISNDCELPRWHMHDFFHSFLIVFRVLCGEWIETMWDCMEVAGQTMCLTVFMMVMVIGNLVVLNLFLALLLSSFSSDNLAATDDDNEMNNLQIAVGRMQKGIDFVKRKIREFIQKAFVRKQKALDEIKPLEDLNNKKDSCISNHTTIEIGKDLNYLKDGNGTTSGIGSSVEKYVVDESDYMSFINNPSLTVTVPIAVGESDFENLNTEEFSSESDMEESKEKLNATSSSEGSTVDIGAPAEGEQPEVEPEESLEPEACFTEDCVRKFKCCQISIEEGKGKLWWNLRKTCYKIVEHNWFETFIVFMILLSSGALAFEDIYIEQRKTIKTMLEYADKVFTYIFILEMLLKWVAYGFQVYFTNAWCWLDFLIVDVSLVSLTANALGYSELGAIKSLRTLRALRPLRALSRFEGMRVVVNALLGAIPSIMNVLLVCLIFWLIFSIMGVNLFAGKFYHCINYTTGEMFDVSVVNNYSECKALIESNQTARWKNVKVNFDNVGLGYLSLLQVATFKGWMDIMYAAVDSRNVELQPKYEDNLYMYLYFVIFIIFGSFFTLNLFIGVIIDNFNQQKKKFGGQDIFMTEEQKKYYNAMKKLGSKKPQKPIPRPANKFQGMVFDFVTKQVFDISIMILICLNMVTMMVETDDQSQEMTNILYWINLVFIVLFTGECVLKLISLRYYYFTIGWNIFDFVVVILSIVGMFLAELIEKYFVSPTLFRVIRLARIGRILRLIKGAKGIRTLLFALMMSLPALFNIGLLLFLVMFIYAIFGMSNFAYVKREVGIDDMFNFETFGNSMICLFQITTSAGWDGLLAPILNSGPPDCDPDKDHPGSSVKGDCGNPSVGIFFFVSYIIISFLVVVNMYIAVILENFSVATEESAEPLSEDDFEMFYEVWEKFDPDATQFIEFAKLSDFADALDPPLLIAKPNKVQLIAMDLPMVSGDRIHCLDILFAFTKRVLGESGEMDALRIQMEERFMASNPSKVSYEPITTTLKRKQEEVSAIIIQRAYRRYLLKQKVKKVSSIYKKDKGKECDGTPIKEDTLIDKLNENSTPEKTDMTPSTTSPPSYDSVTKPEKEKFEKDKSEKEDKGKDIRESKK
T1 sequence (Q07699 19-218 partner): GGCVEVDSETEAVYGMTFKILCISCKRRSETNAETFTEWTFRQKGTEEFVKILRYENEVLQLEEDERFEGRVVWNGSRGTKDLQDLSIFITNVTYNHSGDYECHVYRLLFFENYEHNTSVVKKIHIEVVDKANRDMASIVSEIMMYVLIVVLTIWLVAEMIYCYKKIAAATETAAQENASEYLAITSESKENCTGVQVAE
T1 sequence (O60939 30-215 partner): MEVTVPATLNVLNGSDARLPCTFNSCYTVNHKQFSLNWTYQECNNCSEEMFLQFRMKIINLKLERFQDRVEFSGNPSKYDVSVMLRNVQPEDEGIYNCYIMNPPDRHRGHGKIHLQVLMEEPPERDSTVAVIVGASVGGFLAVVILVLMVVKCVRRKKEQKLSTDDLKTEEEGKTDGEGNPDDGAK

Row | Structure (SMILES) | inhibition at 10 µM (hNav1.1 (SCN1A)) | inhibition at 10 µM (hNaV1.2 (SCN2A))
1 | FC(F)(F)Oc1ccc(-c2ccc3onc(OCc4ncccn4)c3c2)cc1 [Example 1, 3-(pyrimidin-2-ylmethoxy)-5-(4-(trifluoromethoxy)phenyl)benzo[d]isoxazole] | 5.5% | 10.2%
2 | FC(F)(F)Oc1ccc(-c2ccc3onc(OCC4CCO4)c3c2)cc1 (stereo not drawn) [Example 42, 3-(oxetan-2-ylmethoxy)-5-(4-(trifluoromethoxy)phenyl)benzo[d]isoxazole] | < 5% | < 5%
3 | Cc1nnc(COc2noc3ccc(-c4ccc(OC(F)(F)F)cc4)cc23)s1 [Example 101, 3-((5-methyl-1,3,4-thiadiazol-2-yl)methoxy)-5-(4-(trifluoromethoxy)phenyl)benzo[d]isoxazole] | < 5% | 30.5%
4 | Fc1cccnc1COc1noc2ccc(-c3ccc(OC(F)(F)F)cc3)cc12 [Example 94, 3-((3-fluoropyridin-2-yl)methoxy)-5-(4-(trifluoromethoxy)phenyl)benzo[d]isoxazole] | < 5% | < 5%
5 | Cc1cc(COc2noc3ccc(-c4ccc(OC(F)(F)F)cc4)cc23)on1 [Example 102, 3-((3-methylisoxazol-5-yl)methoxy)-5-(4-(trifluoromethoxy)phenyl)benzo[d]isoxazole] | < 5% | 20.6%
6 | CC(=O)N1CCOC[C@@H]1COc1noc2ccc(-c3ccc(OC(F)(F)F)cc3)cc12 [Example 116, (R)-1-(3-(((5-(4-(trifluoromethoxy)phenyl)benzo[d]isoxazol-3-yl)oxy)methyl)morpholino)ethan-1-one] | 70.4% | 62.3%
7 | CC(C)NC(=O)COc1noc2ccc(-c3ccc(OC(F)(F)F)cc3)cc12 [Example 122, N-isopropyl-2-((5-(4-(trifluoromethoxy)phenyl)benzo[d]isoxazol-3-yl)oxy)acetamide] | < 5% | 29.7%
8 | COc1ccnc(COc2noc3ccc(-c4ccc(OC(F)(F)F)cc4)cc23)n1 [Example 67, 3-((4-methoxypyrimidin-2-yl)methoxy)-5-(4-(trifluoromethoxy)phenyl)benzo[d]isoxazole] | 5.26% | < 5%
9 | FC(F)(F)Oc1ccc(-c2ccc3onc(NCc4ncco4)c3c2)cc1 [Example 156, N-(oxazol-2-ylmethyl)-5-(4-(trifluoromethoxy)phenyl)benzo[d]isoxazol-3-amine] | 26.5% | 10.6%
10 | FC(F)(F)Oc1cccc(-c2ccc3onc(OCc4ncccn4)c3c2)c1 [Example 10, 3-(pyrimidin-2-ylmethoxy)-5-(3-(trifluoromethoxy)phenyl)benzo[d]isoxazole] | < 5% | < 5%
11 | CC(=O)N1CC(COc2noc3ccc(-c4ccc(OC(F)(F)F)cc4)cc23)C1 [Example 110, 1-(3-(((5-(4-(trifluoromethoxy)phenyl)benzo[d]isoxazol-3-yl)oxy)methyl)azetidin-1-yl)ethan-1-one] | 77.7% | 67.3%
12 | CC(=O)N1CCOC[C@H]1COc1noc2ccc(-c3ccc(OC(F)(F)F)cc3)cc12 [Example 115, (S)-1-(3-(((5-(4-(trifluoromethoxy)phenyl)benzo[d]isoxazol-3-yl)oxy)methyl)morpholino)ethan-1-one] | 76.4% | 70.8%
13 | FC(F)(F)Oc1ccc(-c2ccc3onc(OCc4nnc(C5CC5)o4)c3c2)cc1 [Example 96, 3-((5-cyclopropyl-1,3,4-oxadiazol-2-yl)methoxy)-5-(4-(trifluoromethoxy)phenyl)benzo[d]isoxazole] | 29.4% | 5.7%
14 | Cc1cc(OC(F)(F)F)ccc1-c1ccc2onc(OCc3ncccn3)c2c1 [Example 3, 5-(2-methyl-4-(trifluoromethoxy)phenyl)-3-(pyrimidin-2-ylmethoxy)benzo[d]isoxazole] | < 5% | < 5%
15 | O=C1CCCN1CCOc1noc2ccc(-c3ccc(OC(F)(F)F)cc3)cc12 [Example 59, 1-(2-((5-(4-(trifluoromethoxy)phenyl)benzo[d]isoxazol-3-yl)oxy)ethyl)pyrrolidin-2-one] | 46.9% | 37.4%
16 | C[C@H](COc1noc2ccc(-c3ccc(OC(F)(F)F)cc3)cc12)N1CCCC1=O [Example 119, (R)-1-(1-((5-(4-(trifluoromethoxy)phenyl)benzo[d]isoxazol-3-yl)oxy)propan-2-yl)pyrrolidin-2-one] | 56.3% | 52.3%
17 | COc1cc(-c2ccc(OC(F)(F)F)cc2)cc2c(OCc3ncccn3)noc12 [Example 22, 7-methoxy-3-(pyrimidin-2-ylmethoxy)-5-(4-(trifluoromethoxy)phenyl)benzo[d]isoxazole] | 28.1% | 40%
18 | CC(C)c1nccn1-c1noc2ccc(-c3ccc(OC(F)(F)F)cc3)cc12 [Example 144, 3-(2-isopropyl-1H-imidazol-1-yl)-5-(4-(trifluoromethoxy)phenyl)benzo[d]isoxazole] | 73.2% | 75.8%
19 | Cc1cc2onc(OCc3ncccn3)c2cc1-c1ccc(C(F)(F)F)cc1F [Example 28, 5-(2-fluoro-4-(trifluoromethyl)phenyl)-6-methyl-3-(pyrimidin-2-ylmethoxy)benzo[d]isoxazole] | < 5% | < 5%
20 | Fc1cc(-c2ccc3onc(OCc4ncccn4)c3c2)ccc1Cl [Example 8, 5-(4-chloro-3-fluorophenyl)-3-(pyrimidin-2-ylmethoxy)benzo[d]isoxazole] | < 5% | < 5%
21 | Nc1noc2ccc(-c3ccc(OC(F)(F)F)cc3)cc12 [Example 147, 5-(4-(trifluoromethoxy)phenyl)benzo[d]isoxazol-3-amine] | 32% | 20.4%
22 | CC(C)[C@@H](COc1noc2ccc(-c3ccc(OC(F)(F)F)cc3)cc12)N1CCCC1=O [Example 120, (S)-1-(3-methyl-1-((5-(4-(trifluoromethoxy)phenyl)benzo[d]isoxazol-3-yl)oxy)butan-2-yl)pyrrolidin-2-one] | 68.9% | 74.4%
23 | FC(F)(F)Oc1ccc(-c2ccc3onc(OC[C@H]4COCCN4)c3c2)cc1 [Example 114, (R)-3-(morpholin-3-ylmethoxy)-5-(4-(trifluoromethoxy)phenyl)benzo[d]isoxazole] | 87.1% | 87%
24 | Cc1nnc(C(C)Oc2noc3ccc(-c4ccc(OC(F)(F)F)cc4)cc23)o1 (stereo not drawn) [Example 153, 3-(1-(5-methyl-1,3,4-oxadiazol-2-yl)ethoxy)-5-(4-(trifluoromethoxy)phenyl)benzo[d]isoxazole] | 73.1% | 53.7%
25 | CC(COc1noc2ccc(-c3ccc(OC(F)(F)F)cc3)cc12)n1cccn1 (stereo not drawn) [Example 68, 3-(2-(1H-pyrazol-1-yl)propoxy)-5-(4-(trifluoromethoxy)phenyl)benzo[d]isoxazole] | < 5% | < 5%
26 | N#CCOc1noc2ccc(-c3ccc(OC(F)(F)F)cc3)cc12 [Example 103, 2-((5-(4-(trifluoromethoxy)phenyl)benzo[d]isoxazol-3-yl)oxy)acetonitrile] | 8.5% | < 5%
27 | FC(F)(F)Oc1ccc(-c2ccc3onc(OCCn4cncn4)c3c2)cc1 [Example 58, 3-(2-(1H-1,2,4-triazol-1-yl)ethoxy)-5-(4-(trifluoromethoxy)phenyl)benzo[d]isoxazole] | 43.5% | 14.5%
